#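 A five-concentration, 48-hour dose response in 96-well plates underlies each endpoint, interpolated linearly between surrounding concentrations. TGI: total growth inhibition.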
# What was measured:
# Assay in all cases: NCI anticancer screen, dose series, 48 h
# [1] = tested on: SK-OV-3 ovarian
# [2] = tested on: SK-MEL-5 melanoma
# [3] = tested on: BT-549 breast
# [4] = tested on: CCRF-CEM leukemia
# [5] = tested on: NCI-H23 lung
# [6] = tested on: SN12C renal
# [7] = tested on: SNB-75 CNS
# [8] = tested on: SK-MEL-28 melanoma
# [9] = tested on: LOX IMVI melanoma
# [10] = tested on: UO-31 renal
# [11] = tested on: HT29 colon
SMILES,TGI [1] [µM],TGI [2] [µM],TGI [3] [µM],TGI [4] [µM],TGI [5] [µM],TGI [6] [µM],TGI [7] [µM],TGI [8] [µM],TGI [9] [µM],TGI [10] [µM],TGI [11] [µM]
Cc1ccc(C(=N)c2ccccc2Cc2cccc3ccccc23)c2ccccc12,> 100,> 100,> 100,> 100,> 100,> 100,> 100,> 100,> 100,> 100,> 100
COC1CC(N)(c2ccccc2)C(O)C(C)O1 (stereo not given),> 100,> 100,> 100,> 100,> 100,> 100,> 100,> 100,> 100,> 100,
COc1cccc(N2C(=O)CSC2c2cccc(Oc3ccccc3)c2)c1 (stereo not given),> 100,16.9,45.6,> 100,> 100,25,39.5,> 100,27.2,> 100,37.5
COC(=O)Cc1cc(O)c2c(c1O)C(=O)c1ccccc1C2=O,> 100,> 100,> 100,> 100,> 100,> 100,49,> 100,> 100,> 100,> 46.4
COc1cc(/C=C2\C(=O)N(c3cccc([N+](=O)[O-])c3)C(c3ccccc3)S2(=O)=O)cc(OC)c1OC (stereo not given),> 100,> 100,> 100,> 100,> 100,> 100,> 100,> 100,> 100,> 100,> 100
CC(N=NNc1ccc(-c2nc3ccccc3[nH]2)cc1)C(=O)O (stereo not given),> 100,> 100,57.6,> 100,> 100,> 100,> 100,> 100,> 100,> 100,> 100
O=C(O)CCc1nc2c(n1-c1ccccc1)C(=O)c1ccccc1C2=O,> 100,> 100,> 100,> 100,> 100,> 100,> 100,> 100,> 100,> 100,> 100
C=CCOC(=O)N1c2ccc(O[Si](C)(C)C(C)(C)C)cc2[C@@]23O[C@@]24[C@@H]1C#C/C=C\C#C[C@]3(O)C(OC)(OC)C[C@@H]4C,> 100,> 100,> 100,> 100,> 100,> 100,> 75.9,> 100,> 100,> 100,> 100
OC1[C@@H]2[C@@H](O)CCCN2C[C@@H](O)[C@H]1O (stereo not given in full),> 100,> 100,> 100,> 100,> 100,> 100,> 100,> 100,> 100,> 100,> 100
Fc1ccc(C(OCCN2CCN(CCCc3ccccc3)CC2)c2ccc(F)cc2)cc1,18.9,10.1,19.3,> 100,15.3,15.8,16.4,23.6,15.6,12,12.3
CC(=O)c1c(-c2cccc3ccccc23)c(C#N)c(=S)n(C2OC(CO)C(O)C(O)C2O)c1C (stereo not given),> 100,> 100,> 100,> 100,> 100,> 100,> 100,> 100,> 100,> 100,> 100
Nc1n(CC(=O)c2ccccc2)nc2sc(-c3ccccc3)n[n+]12,92,22,> 100,> 100,59.5,> 100,> 100,> 100,> 100,40.3,51.3
CC(C)/C(Cl)=N/OC(=O)Nc1ccc(Br)cc1,30.3,26.3,9.19,2.93,26.5,4.62,34.3,14.1,2.85,23.8,18.5
Cn1c(=O)c2c(nc3n(CC(O)CCl)c(=O)ccn23)n(C)c1=O (stereo not given),> 100,> 100,> 100,> 100,> 100,> 100,> 100,> 100,> 100,> 100,> 100
O=[N+]([O-])c1ccccc1OCCOc1ccccc1[N+](=O)[O-],> 100,> 100,> 100,> 100,> 100,> 100,> 100,> 100,> 100,> 100,> 100
CCC/C(Cl)=N\OC(=O)Nc1ccc(F)cc1,> 59.7,26.7,28.4,3.85,41.2,31,> 58,38.4,9.97,31.5,> 69.6

# From PubChem BioAssay (NCI)
